Laboratory results taken from patent publication US11602531B2, “Vacuole-inducing compounds, methods of making and using the same” (The University of Toledo, priority 2017, dated 2023).

Assays:
Type in all cases: cell-based, human
[1] = tested on: U251 glioblastoma cells; assay: Vacuolization of U251 cells by phase contrast and electron microscopy; details: 24 h; for vacuolization of endocytic compartments (accumulation of vacuoles): 10 μM MOPIPP or 1 μM vacuolin-1, phase contrast microscopy
[2] = tested on: U251 glioblastoma cells; assay: Cell counts, proliferation and viability of treated cultures (Coulter Counter); details: for cell attachment and proliferation despite vacuolization / growth inhibition (cell numbers versus DMSO control): U251 cells, 24 h; for cell attachment and proliferation despite vacuolization / cell proliferation and viability: 10 μM MOPIPP or 1 μM vacuolin-1; for growth inhibition (cell numbers versus DMSO control): 10 μM MOPIPP or 1 μM vacuolin-1, Coulter Counter; for cell proliferation and viability: U251 glioblastoma cells
Protocol: U251 human glioblastoma cells were purchased from the DCT Tumor Repository (National Cancer Institute, Frederick, Md.). Stock cultures were maintained in Dulbecco's modified Eagle medium (DMEM) containing 10% (v/v) fetal bovine serum (FBS) (JR Scientific, Woodland, Calif.) at 37° C. with an atmosphere of 5% CO2 in air. Cultures were passaged for less than 6 months and were monitored periodically for Mycoplasma contamination.
(§1) Prior to beginning studies, cells were seeded in 10 cm diameter culture dishes at 500,000 cells/dish and maintained for 24 h in DMEM supplemented with 10% Gibco™ exosome-depleted FBS (ThermoFisher Scientific, Waltham, Mass.). The medium was then replaced with fresh medium containing either 10 μM MOPIPP (synthesized as described in Trabbic et al., “Differential Induction of Cytoplasmic Vacuolization and Methuosis by Novel 2-Indolyl-Substituted Pyridinylpropenones, ACS Med. Chem. Lett., 5 (2014) 73-77) or 1 μM vacuolin-1 (Santa Cruz Biotechnology, Santa Cruz, Calif.) dissolved in DMSO. Control cultures contain an equivalent volume of the DMSO vehicle (0.1%) in the medium. After 24 h, the medium was collected from the dishes (typically 10-12 dishes per condition) and the attached cells were pooled and counted with a Coulter Counter (model Z1). Exosomes were isolated from medium using the Exo-Spin™ Exosome Purification system (Cell Guidance Systems, St. Louis, Mo.). The medium was pre-cleared by centrifugation at 4° C., first at 300×g for 10 min and then at 16,000×g for 30 min. Then a volume of Buffer A equal to half the volume of medium was added and the mixture was incubated overnight at 4° C. The precipitate, enriched with exosomes, was collected by centrifugation at 16,000×g for 1 h, and the pellet was re-suspended in […] Dulbecco's phosphate-buffered saline (PBS), pH 7.4. The material was applied to an Exo-Spin column equilibrated with PBS, and the purified exosomes were eluted in 200 μl of PBS.

[3] = tested on: U251 glioblastoma cells; assay: Immunoblot quantification of exosome marker proteins (CD63, Alix, LAMP-1) in purified exosomes and in cells; details: 10 μM MOPIPP or 1 μM vacuolin-1, western blot; for changes in expression of CD63, Alix and LAMP-1 in the corresponding cell populations: cell lysates, 24 h; for relative amounts of CD63, Alix and LAMP-1 in extracellular vesicle preparations versus control: exosomes from 24 h conditioned medium
Protocol: as §1
The cells in the dishes used for collection of exosomes were washed three times with PBS and lysed in SDS sample buffer (Laemmli, “Cleavage of structural proteins during the assembly of the head of bacteriophage T4, Nature, 227 (1970) 680-685). The protein concentration was determined by colorimetric assay using Bio-Rad reagent (Bio-Rad, Richmond, Calif.). Samples containing equal amounts of total cell protein were subjected to SDS-PAGE and immunoblot analysis (as described in Maltese et al., “Retention of the Alzheimer's amyloid precursor fragment C99 in the endoplasmic reticulum prevents formation of amyloid beta-peptide, J. Biol. Chem., 276 (2001) 20267-20279). For analysis of proteins in exosomes, equal volumes of purified exosomes isolated from control or treated cells were mixed with ⅕ volume of 5×SDS sample buffer prior to SDS-PAGE. Monoclonal antibodies against CD63 and LAMP-1 were obtained from the Developmental Studies Hybridoma Bank (Iowa City, Iowa). […] Chemiluminescent signals on the membranes were quantified using an Alpha Innotech FluorChem HD2 imaging system with Alpha View software.

[4] = tested on: U251 glioblastoma cells; assay: RT-PCR analysis of miRNAs in cells and exosomes; details: for relative abundance of miR-21-5p in exosomal RNA: equal amounts of exosomal RNA, raw Ct values, three independent experiments
Protocol: Prior to beginning studies, cells were seeded in 10 cm diameter culture dishes at 500,000 cells/dish and maintained for 24 h in DMEM supplemented with 10% Gibco™ exosome-depleted FBS (ThermoFisher Scientific, Waltham, Mass.). The medium was then replaced with fresh medium containing either 10 μM MOPIPP (synthesized as described in Trabbic et al., “Differential Induction of Cytoplasmic Vacuolization and Methuosis by Novel 2-Indolyl-Substituted Pyridinylpropenones, ACS Med. Chem. Lett., 5 (2014) 73-77) or 1 μM vacuolin-1 (Santa Cruz Biotechnology, Santa Cruz, Calif.) dissolved in DMSO. Control cultures contain an equivalent volume of the DMSO vehicle (0.1%) in the medium. After 24 h, the medium was collected from the dishes (typically 10-12 dishes per condition) and the attached cells were pooled and counted with a Coulter Counter (model Z1). Exosomes were isolated from medium using the Exo-Spin™ Exosome Purification system (Cell Guidance Systems, St. Louis, Mo.). The medium was pre-cleared by centrifugation at 4° C., first at 300×g for 10 min and then at 16,000×g for 30 min. Then a volume of Buffer A equal to half the volume of medium was added and the mixture was incubated overnight at 4° C. The precipitate, enriched with exosomes, was collected by centrifugation at 16,000×g for 1 h, and the pellet was re-suspended in […] Dulbecco's phosphate-buffered saline (PBS), pH 7.4. […]
Total RNA was extracted and purified from cultured cells or exosomes using QIAzol™ lysis reagent followed by RNAeasy Mini spin-columns, according to the manufacturer's protocol (SA Biosciences/Qiagen, Germantown, Md.). […] RNA and cDNA were quantified and checked for purity (OD 260/280) using a Nano-Drop-1000 spectrophotometer (ThermoFisher). […] For comparisons of the miRNA contents of exosomes collected from the medium of cells treated with MOPIPP, vacuolin-1 or vehicle (DMSO), individual miScript primers were purchased for six of the most highly expressed miRNAs detected in U251 cells (SA Biosciences/Qiagen). […]

In the case of `CCCc1[nH]c2ccc(OC)cc2c1C=CC(=O)c1ccncc1` [MOPIPP, 3-(5-methoxy-2-propyl-1H-indol-3-yl)-1-(4-pyridinyl)-2-propen-1-one], the “vacuolization of endocytic compartments (accumulation of vacuoles)” value [1] is reported as “resulted in vacuolization of endocytic compartments”, the “subpopulation of vacuoles containing clusters of heterogeneous vesicles (ILV/exosome size)” value ([1]; 10 μM MOPIPP, electron microscopy) is reported as 20-30% and the “cell attachment and proliferation despite vacuolization” value [2] is reported as “remained attached to the culture dishes and continued to proliferate”. For the same molecule, the “growth inhibition (cell numbers versus DMSO control)” value [2] was “lack of growth inhibition”, the “cell proliferation and viability” value [2] was “not markedly impaired” and the “changes in expression of CD63, Alix and LAMP-1 in the corresponding cell populations” value [3] was “comparatively modest”. For the same molecule, the “relative amounts of CD63, Alix and LAMP-1 in extracellular vesicle preparations versus control” value [3] was “increased by several fold”, the “cellular expression of 13 selected miRNAs” value ([4]; U251 cells, 24 h, 10 μM MOPIPP versus DMSO, RT-PCR) was “did not cause major changes” and the “relative abundance of miR-21-5p in exosomal RNA” value [4] was “no observations of any changes”.

With `Ic1cccc(/C=N/Nc2nc(N3CCOCC3)nc(N(c3ccccc3)c3ccccc3)n2)c1` [vacuolin-1, reference compound] the “vacuolization of endocytic compartments (accumulation of vacuoles)” value [1] was “induced a very similar phenotype”, the “cell attachment and proliferation despite vacuolization” value [2] was “remained attached to the culture dishes and continued to proliferate” and the “growth inhibition (cell numbers versus DMSO control)” value [2] was “lack of growth inhibition”. For the same molecule, the “cell proliferation and viability” value [2] was “not markedly impaired”, the “changes in expression of CD63, Alix and LAMP-1 in the corresponding cell populations” value [3] was “comparatively modest” and the “relative amounts of CD63, Alix and LAMP-1 in extracellular vesicle preparations versus control” value [3] was “An even greater increase”. The “relative abundance of miR-21-5p in exosomal RNA” value [4] was “no observations of any changes”.
